Data reported in US8981148B2, “Esteramide compounds, methods for preparing same, and uses thereof” (priority 2010, dated 2015).

Legend:
Format in all cases: physicochemical
[1] = Solubility of agrochemical actives in the solvents: visual observation at 25° C.; design: key: Crystal: When the formation of active crystals is observed, the term of <> is indicated; Limpid: When the solution remains limpid (absence of solid or cloudiness), it is the term of <> which is indicated
Experimental: (§1) Formulations were made by diluting various actives, reported below in the table, in the compounds 1C, 2C, 3 and 4 synthesized above.
1) Visual observation at 25° C.
The aspect of the formulation is noted and the presence of crystals is possibly located.
(§2) The actives used are commercially available.

[2] = Solubility of agrochemical actives in the solvents: visual observation at 0° C. after 7 days (CIPAC MT39 test); design: key: Crystal: When the formation of active crystals is observed, the term of <> is indicated; Limpid: When the solution remains limpid (absence of solid or cloudiness), it is the term of <> which is indicated; details: 7 days at 0° C.
Experimental: as §1
2) Visual observation at 0° C.
The formulation is placed at 0° C. for 7 days and the aspect of the formulation is noted and the presence of crystals is possibly located (CIPAC MT39 test).
as §2

[3] = Solubility of agrochemical actives in the solvents: visual observation at 0° C. with nucleation; design: key: Crystal: When the formation of active crystals is observed, the term of <> is indicated; Limpid: When the solution remains limpid (absence of solid or cloudiness), it is the term of <> which is indicated; details: crystal of active added, further 7 days at 0° C.
Experimental: Formulations were made by diluting various actives, reported below in the table, in the compounds 1C, 2C, 3 and 4 synthesized above. 3) Visual observation at 0° C. with nucleation (by introducing a crystal of the pure active into the liquid) A crystal of the active material is introduced into the formulation which has spent 7 days at 0° C. for nucleation, and the formulation is again placed for 7 days at 0° C. The aspect of the formulation is noted and the presence of crystals or the growth of the introduced crystal is possibly located. The actives used are commercially available.

[4] = Measurement of solubility of the solvent in water; details: +20° C., stirred 2 hours, visual limpidity
Experimental: In a glass flask, a specific weight of compound is weighed. A known mass of water is added on to this compound. T his mixture is magnetically stirred at a temperature of +20° C. for 2 hours. After this period, if visually, the solution has cloudiness or heterogeneity, a new mass of water is added to the mixture. This iteration occurs until a limpid solution is obtained. Maximum solubility is then less than the last value having led to a cloudy or heterogeneous mixture and greater than that having led to a limpid mixture.

[5] = Active Alachlor 48% EC in the compound as solvent
[6] = Active Azoxystrobin 25% EC in the compound as solvent
[7] = Active Difenconazole 25% EC in the compound as solvent
[8] = Active Dimethoate 40% EC in the compound as solvent
[9] = Active Oxyfluorfen 22% EC in the compound as solvent
[10] = Active Pendimethalin 33% EC in the compound as solvent
[11] = Active Phenmedipham 16% EC in the compound as solvent
[12] = Active Propanil 36% EC in the compound as solvent
[13] = Active Propuxur 20% EC in the compound as solvent
[14] = Active Tebuconazole 25% EC in the compound as solvent
[15] = Active Trifluralin 40% EC in the compound as solvent
[16] = Active alpha-Cypermethrin 10% EC in the compound as solvent
[17] = Active Chlorpyrifos 40% EC in the compound as solvent

Compound	Aspect at 25° C. [1, 5]	Aspect at 25° C. [1, 7]	Aspect at 25° C. [1, 8]	Aspect at 25° C. [1, 9]	Aspect at 25° C. [1, 10]	Aspect at 25° C. [1, 12]	Aspect at 25° C. [1, 13]	Aspect at 25° C. [1, 15]	Aspect at 25° C. [1, 16]	Aspect at 0° C. [2, 5]	Aspect at 0° C. [2, 7]	Aspect at 0° C. [2, 8]	Aspect at 0° C. [2, 9]	Aspect at 0° C. [2, 10]	Aspect at 0° C. [2, 12]	Aspect at 0° C. [2, 13]	Aspect at 0° C. [2, 15]	Aspect at 0° C. with nucleation [3, 5]	Aspect at 0° C. with nucleation [3, 7]	Aspect at 0° C. with nucleation [3, 12]	further results
COC(=O)C(=O)N(C)C [Compound 1, methyl 2-(dimethylamino)-2-oxoacetate]	Limpid	Limpid	Limpid	Limpid	Limpid	Limpid	Limpid	Limpid	Limpid	Limpid	Limpid	Crystal	Crystal	Crystal	Limpid	Limpid	Crystal	Limpid	Limpid	Limpid	Aspect at 25° C. [1, 6]: Limpid; Aspect at 25° C. [1, 11]: Limpid; Aspect at 25° C. [1, 14]: Limpid; Aspect at 0° C. [2, 6]: Crystal; Aspect at 0° C. [2, 11]: Limpid; Aspect at 0° C. [2, 14]: Crystal; Aspect at 0° C. [2, 16]: Limpid; Aspect at 0° C. with nucleation [3, 11]: Limpid; Aspect at 0° C. with nucleation [3, 13]: Limpid; Aspect at 0° C. with nucleation [3, 16]: Limpid
CCOC(=O)C(=O)N(C)C [Compound 2, ethyl 2-(dimethylamino)-2-oxoacetate]	Limpid	Limpid	Limpid	Limpid	Limpid	Limpid	Limpid	Limpid	Limpid	Limpid	Limpid	Limpid	Limpid	Crystal	Limpid	Crystal	Limpid	Limpid	Limpid	Limpid	Aspect at 25° C. [1, 6]: Limpid; Aspect at 25° C. [1, 17]: Limpid; Aspect at 25° C. [1, 11]: Limpid; Aspect at 25° C. [1, 14]: Limpid; Aspect at 0° C. [2, 6]: Crystal; Aspect at 0° C. [2, 17]: Limpid; Aspect at 0° C. [2, 11]: Limpid; Aspect at 0° C. [2, 14]: Crystal; Aspect at 0° C. [2, 16]: Limpid; Aspect at 0° C. with nucleation [3, 17]: Limpid; Aspect at 0° C. with nucleation [3, 8]: Crystal; Aspect at 0° C. with nucleation [3, 9]: Limpid; Aspect at 0° C. with nucleation [3, 11]: Limpid; Aspect at 0° C. with nucleation [3, 15]: Limpid; Aspect at 0° C. with nucleation [3, 16]: Limpid
CCCCC(CC)COC(=O)C(=O)N(C)C (centres unmarked) [Compound 3, 2-ethyl-hexyl 2-(dimethylamino)-2-oxoacetate]	Limpid	Limpid	Limpid	Limpid	Limpid	Limpid	Limpid	Limpid	Limpid	Limpid	Limpid	Crystal	Limpid	Crystal	Limpid	Crystal	Limpid	Limpid	Limpid	Limpid	Aspect at 25° C. [1, 17]: Limpid; Aspect at 0° C. [2, 17]: Limpid; Aspect at 0° C. [2, 16]: Limpid; Aspect at 0° C. with nucleation [3, 17]: Limpid; Aspect at 0° C. with nucleation [3, 9]: Crystal; Aspect at 0° C. with nucleation [3, 15]: Limpid; Aspect at 0° C. with nucleation [3, 16]: Limpid; Solubility in water (wt %) [4]: <0.1 wt %
CCCCCCCCCCOC(=O)C(=O)N(C)C [Compound 4, n-decyl 2-(dimethylamino)-2-oxoacetate]	Limpid	Limpid		Limpid		Limpid		Limpid		Limpid	Limpid		Limpid		Limpid		Crystal	Limpid	Limpid	Limpid	Aspect at 25° C. [1, 17]: Limpid; Aspect at 0° C. [2, 17]: Crystal; Aspect at 0° C. with nucleation [3, 9]: Limpid; Solubility in water (wt %) [4]: <0.025 wt %
